Experimental data from US10745382B2 (BRISTOL-MYERS SQUIBB COMPANY, priority 2015, dated 2020).

Molecular target: T1, PD-1/PD-L1 (Homo sapiens, UniProt Q9NZQ7)
T1 construct: made in house; host or cells: HEK293T
Assay: PD-1/PD-L1 Homogenous Time-Resolved Fluorescence (HTRF) binding assay
Conditions: PD-L1-His 10 nM, PD-1-Ig 20 nM; numeric IC50; read-out: Range or IC50
Outline: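 Binding was measured by HTRF in dPBS with 0.1% BSA and 0.05% Tween-20. Detection used europium cryptate anti-Ig (1 nM final) and APC anti-His (20 nM final) added over the binding reaction.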

T1 sequence (Q9NZQ7 with tags, fused parts or gaps): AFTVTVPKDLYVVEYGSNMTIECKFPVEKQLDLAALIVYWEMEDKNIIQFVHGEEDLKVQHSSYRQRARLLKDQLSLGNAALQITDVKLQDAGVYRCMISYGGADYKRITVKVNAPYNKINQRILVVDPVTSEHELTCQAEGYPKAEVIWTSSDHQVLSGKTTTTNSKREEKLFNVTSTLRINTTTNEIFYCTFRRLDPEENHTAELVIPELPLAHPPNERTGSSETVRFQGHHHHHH

IC50 [µM]	Structure (SMILES)
0.003	Cc1c(COc2cc(OCc3cncc(C#N)c3)c(CNC(CO)(CO)CO)cc2Cl)cccc1-c1cccc(OCCCNC(CO)(CO)CO)c1C [Example 2281, 5-((4-chloro-2-(((1,3-dihydroxy-2-(hydroxymethyl)propan-2-yl)amino)methyl)-5-((3′-(3-((1,3-dihydroxy-2-(hydroxymethyl)propan-2-yl)amino)propoxy)-2,2′-dimethyl-[1,1′-biphenyl]-3-yl)methoxy)phenoxy)methyl)nicotinonitrile]

Same assay, conditions: PD-L1-His 10 nM, PD-1-Ig 20 nM; value given as range class; read-out: Range or IC50

Structure (SMILES)	IC50 [µM]
Cc1c(COc2cc(OCc3cc(F)cc(F)c3)c(CO)cc2Cl)cccc1-c1cccc(OCCCN2CC[C@@H](O)C2)c1C [Example 4522, (R)-1-(3-((3′-((2-chloro-5-((3,5-difluorobenzyl)oxy)-4-(hydroxymethyl)phenoxy)methyl)-2,2′-dimethyl-[1,1′-biphenyl]-3-yl)oxy)propyl)pyrrolidin-3-ol]	0.01 to 0.1
Cc1c(COc2cc(OCc3cncc(C#N)c3)c(CNC(CO)CO)cc2Cl)cccc1-c1cccc(NC(=O)c2ncccc2CO)c1C [Example 2340, N-(3′-((2-chloro-5-((5-cyanopyridin-3-yl)methoxy)-4-(((1,3-dihydroxypropan-2-yl)amino)methyl)phenoxy)methyl)-2,2′-dimethyl-[1,1′-biphenyl]-3-yl)-3-(hydroxymethyl)picolinamide]	0.01 to 0.1
Cc1c(COc2cc(OCc3cncc(C#N)c3)c(CO)cc2Cl)cccc1-c1cccc(OCCCN2CCC[C@H](C(=O)O)C2)c1Cl [Example 2009, (S)-1-(3-((2-chloro-3′-((2-chloro-5-((5-cyanopyridin-3-yl)methoxy)-4-(hydroxymethyl)phenoxy)methyl)-2′-methyl-[1,1′-biphenyl]-3-yl)oxy)propyl)piperidine-3-carboxylic Acid]	0.01 to 0.1
CCNC(=O)c1cccc(-c2cccc(COc3cc(OCc4cc(F)cc(F)c4)c(CNC(CO)CO)cc3Cl)c2C)c1C [Example 4021, 3′-((2-chloro-5-((3,5-difluorobenzyl)oxy)-4-(((1,3-dihydroxypropan-2-yl)amino)methyl)phenoxy)methyl)-N-ethyl-2,2′-dimethyl-[1,1′-biphenyl]-3-carboxamide]	0.1 to 2
Cc1ccccc1-c1cccc(COc2cc(OCc3cncc(C#N)c3)c(CN3CCCC[C@H]3C(=O)O)cc2Cl)c1C [Example 3023, (S)-1-(5-chloro-2-((5-cyanopyridin-3-yl)methoxy)-4-((2,2′-dimethyl-[1,1′-biphenyl]-3-yl)methoxy)benzyl)piperidine-2-carboxylic Acid]	0.00021 to 0.01
Cc1cc(OCc2cccc(-c3cccc(OCCCN4CC[C@@H](O)C4)c3C)c2C)cc(OCc2cncc(C#N)c2)c1CN[C@@](C)(CO)C(=O)O [Example 4091, (S)-2-((2-((5-cyanopyridin-3-yl)methoxy)-4-((3′-(3-((R)-3-hydroxypyrrolidin-1-yl)propoxy)-2,2′-dimethyl-[1,1′-biphenyl]-3-yl)methoxy)-6-methylbenzyl)amino)-3-hydroxy-2-methylpropanoic Acid]	0.00021 to 0.01
Cc1c(COc2cc(OCc3cncc(C#N)c3)c(CNCCC(=O)O)cc2Cl)cccc1-c1cccc(OCCCN2CC[C@@H](O)C2)c1C [Example 4149, (R)-3-((5-chloro-2-((5-cyanopyridin-3-yl)methoxy)-4-((3′-(3-(3-hydroxypyrrolidin-1-yl)propoxy)-2,2′-dimethyl-[1,1′-biphenyl]-3-yl)methoxy)benzyl)amino)propanoic Acid]	0.00021 to 0.01
Cc1c(COc2cc(OCc3cncc(C#N)c3)c(CN[C@@H](CO)C(=O)O)cc2Cl)cccc1-c1cccc(C(=O)N2CCOCC2)c1C [Example 4055, (5-chloro-2-((5-cyanopyridin-3-yl)methoxy)-4-((2,2′-dimethyl-3′-(morpholine-4-carbonyl)-[1,1′-biphenyl]-3-yl)methoxy)benzyl)-L-serine]	0.01 to 0.1

The remaining lines, values ahead:

IC50 [µM]	Structure (SMILES)
0.00021 to 0.01	C=CC[C@H](NCc1cc(Cl)c(OCc2cccc(-c3cccc(OCCCN4CC[C@@H](O)C4)c3C)c2C)cc1OCc1cncc(C#N)c1)C(=O)O [Example 4155, (S)-2-((5-chloro-2-((5-cyanopyridin-3-yl)methoxy)-4-((3′-(3-((R)-3-hydroxypyrrolidin-1-yl)propoxy)-2,2′-dimethyl-[1,1′-biphenyl]-3-yl)methoxy)benzyl)amino)pent-4-enoic Acid]
0.00021 to 0.01	Cc1ccccc1-c1cccc(COc2cc(OCc3cncc(C#N)c3)c(CN[C@](C)(CO)C(=O)O)cc2Cl)c1C [Example 3022, (R)-2-((5-chloro-2-((5-cyanopyridin-3-yl)methoxy)-4-((2,2′-dimethyl-[1,1′-biphenyl]-3-yl)methoxy)benzyl)amino)-3-hydroxy-2-methylpropanoic Acid]
0.00021 to 0.01	CC(=O)NC1CCN(CCCOc2cccc(-c3cccc(COc4cc(OCc5cncc(C#N)c5)c(CN5CCCC[C@H]5C(=O)O)cc4Cl)c3C)c2C)CC1 [Example 1105, (S)-1-(4-((3′-(3-(4-acetamidopiperidin-1-yl)propoxy)-2,2′-dimethyl-[1,1′-biphenyl]-3-yl)methoxy)-5-chloro-2-((5-cyanopyridin-3-yl)methoxy)benzyl)piperidine-2-carboxylic Acid]
0.00021 to 0.01	Cc1c(COc2cc(OCc3ccc(F)c(F)c3)c(CNC(CO)CO)cc2Cl)cccc1-c1cccc(OCCCN2CC[C@@H](O)C2)c1C [Example 4509, (R)-2-((5-chloro-2-((3,4-difluorobenzyl)oxy)-4-((3′-(3-(3-hydroxypyrrolidin-1-yl)propoxy)-2,2′-dimethyl-[1,1′-biphenyl]-3-yl)methoxy)benzyl)amino)propane-1,3-diol]
0.00021 to 0.01	Cc1c(COc2cc(OCc3cncc(C#N)c3)c(CN[C@@](C)(CO)C(=O)O)cc2Cl)cccc1-c1cccc(OCCCN2CC[C@@H](O)C2)c1 [Example 1017, (S)-2-((5-chloro-2-((5-cyanopyridin-3-yl)methoxy)-4-((3′-(3-((R)-3-hydroxypyrrolidin-1-yl)propoxy)-2-methyl-[1,1′-biphenyl]-3-yl)methoxy)benzyl)amino)-3-hydroxy-2-methylpropanoic Acid]
0.00021 to 0.01	Cc1c(COc2cc(OCc3cc(Cl)cc(Cl)c3)c(CN3CCCC[C@H]3C(=O)O)cc2Cl)cccc1-c1cccc(OCCCN2CC[C@@H](O)C2)c1C [Example 4503, (S)-1-(5-chloro-2-((3,5-dichlorobenzyl)oxy)-4-((3′-(3-((R)-3-hydroxypyrrolidin-1-yl)propoxy)-2,2′-dimethyl-[1,1′-biphenyl]-3-yl)methoxy)benzyl)piperidine-2-carboxylic Acid]
0.00021 to 0.01	Cc1c(COc2cc(OCc3cncc(C#N)c3)c(CN3CC[C@@H](O)C3)cc2Cl)cccc1-c1cccc(OCCCN2CC[C@@H](O)C2)c1C [Example 2201, 5-((4-chloro-2-(((R)-3-hydroxypyrrolidin-1-yl)methyl)-5-((3′-(3-((R)-3-hydroxypyrrolidin-1-yl)propoxy)-2,2′-dimethylbiphenyl-3-yl)methoxy)phenoxy)methyl)nicotinonitrile]
0.00021 to 0.01	CN(CCCOc1cccc(-c2cccc(COc3cc(OCc4cncc(C#N)c4)c(CN[C@](C)(CO)C(=O)O)cc3Cl)c2Cl)c1Cl)C[C@H](O)CO [Example 2064, (R)-2-((5-chloro-2-((5-cyanopyridin-3-yl)methoxy)-4-((2,2′-dichloro-3′-(3-(((S)-2,3-dihydroxypropyl)(methyl)amino)propoxy)-[1,1′-biphenyl]-3-yl)methoxy)benzyl)amino)-3-hydroxy-2-methylpropanoic Acid]
0.00021 to 0.01	Cc1ccc(OCCCN2CC[C@@H](O)C2)cc1-c1cccc(COc2cc(OCc3cncc(C#N)c3)c(CN3CCCC[C@H]3C(=O)O)cc2Cl)c1C [Example 1528, (S)-1-(5-chloro-2-((5-cyanopyridin-3-yl)methoxy)-4-((5′-(3-((R)-3-hydroxypyrrolidin-1-yl)propoxy)-2,2′-dimethyl-[1,1′-biphenyl]-3-yl)methoxy)benzyl)piperidine-2-carboxylic acid]
0.00021 to 0.01	Cc1c(COc2ccc(CN3CCCC[C@H]3C(=O)O)cc2Cl)cccc1-c1cccc(OCCCN2CC[C@@H](O)C2)c1C [Example 3072, (S)-1-(3-chloro-4-((3′-(3-((R)-3-hydroxypyrrolidin-1-yl)propoxy)-2,2′-dimethyl-[1,1′-biphenyl]-3-yl)methoxy)benzyl)piperidine-2-carboxylic Acid]
0.00021 to 0.01	Cc1c(COc2cc(OCc3cncc(C#N)c3)c(CN[C@@H](CO)C(=O)O)cc2Cl)cccc1-c1cccc(OCCCN2CCC(O)C2)c1C(F)(F)F (stereo in doubt) [Example 3012, (S)-2-((5-chloro-2-((5-cyanopyridin-3-yl)methoxy)-4-((3′-(3-((R)-3-hydroxypyrrolidin-1-yl)propoxy)-2-methyl-2′-(trifluoromethyl)-[1,1′-biphenyl]-3-yl)methoxy)benzyl)amino)-3-hydroxypropanoic Acid]
0.00021 to 0.01	Cc1c(COc2cc(OCc3cncc(C(N)=O)c3)c(CN[C@H](CO)C(=O)O)cc2Cl)cccc1-c1cccc(OCCCN2CCC(O)(C(=O)O)CC2)c1C [Example 1035, (R)-1-(3-((3′-((5-((5-carbamoylpyridin-3-yl)methoxy)-4-(((1-carboxy-2-hydroxyethyl)amino)methyl)-2-chlorophenoxy)methyl)-2,2′-dimethyl-[1,1′-biphenyl]-3-yl)oxy)propyl)-4-hydroxypiperidine-4-carboxylic Acid]
0.00021 to 0.01	Cc1c(COc2cc(OCc3cncc(C#N)c3)c(CN[C@](C)(CO)C(=O)O)cc2Cl)cccc1-c1cccc(OCCCN2CCC(CO)(C(=O)O)CC2)c1Cl [Example 1115, (R)-1-(3-((3′-((4-(((2-carboxy-1-hydroxypropan-2-yl)amino)methyl)-2-chloro-5-((5-cyanopyridin-3-yl)methoxy)phenoxy)methyl)-2-chloro-2′-methyl-[1,1′-biphenyl]-3-yl)oxy)propyl)-4-(hydroxymethyl)piperidine-4-carboxylic Acid]
